Source: PubChem BioAssay AID248 (DTP/NCI, 2004)
Several values for one entry are separate records, joined by “and”; a condition that tells them apart may be missing. Equal entries are not always repeated. Toxic doses and inconclusive results are not listed. No stated cut-off is given here; in the data, active means T/C of 150% or more; inactive means T/C below 125%.

Tested on: L1210 leukemia ip in BDF1 mice, survival T/C
Experiment: NCI In Vivo Anticancer Drug Screen. Data for tumor model L1210 Leukemia (intraperitoneal) in B6D2F1 (BDF1) mice
Conditions: endpoint: mean survival time, higher = longer survival
How it was run: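 Mice bearing the transplanted tumor received compound or vehicle. Survival of the treated group was divided by that of the vehicle-treated control group to give the ratio.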

[1] = dose: 20.0 mg/kg/injection, schedule: Q04DX003 (ip), vehicle: saline
[2] = dose: 100.0 mg/kg/injection, schedule: Q04DX003 (ip), vehicle: Klucel (hydroxypropylcellulose) (HPC)
[3] = dose: 200.0 mg/kg/injection, schedule: Q04DX003 (ip), vehicle: Klucel (hydroxypropylcellulose) (HPC)
[4] = dose: 400.0 mg/kg/injection, schedule: Q04DX003 (ip), vehicle: Klucel (hydroxypropylcellulose) (HPC)
[5] = dose: 100.0 mg/kg/injection, schedule: Q04DX002 (ip), vehicle: Klucel (hydroxypropylcellulose) (HPC)
[6] = dose: 50.0 mg/kg/injection, schedule: Q01DX009 (ip), vehicle: saline with Tween-80
[7] = dose: 100.0 mg/kg/injection, schedule: Q01DX009 (ip), vehicle: saline with Tween-80
[8] = dose: 200.0 mg/kg/injection, schedule: Q01DX009 (ip), vehicle: saline with Tween-80
[9] = dose: 100.0 mg/kg/injection, schedule: Q04DX003 (ip), vehicle: saline with Tween-80
[10] = dose: 200.0 mg/kg/injection, schedule: Q04DX003 (ip), vehicle: saline with Tween-80
[11] = dose: 400.0 mg/kg/injection, schedule: Q04DX003 (ip), vehicle: saline with Tween-80
[12] = dose: 100.0 mg/kg/injection, schedule: Q01DX009 (ip), vehicle: Klucel (hydroxypropylcellulose) (HPC)
[13] = dose: 200.0 mg/kg/injection, schedule: Q01DX009 (ip), vehicle: Klucel (hydroxypropylcellulose) (HPC)
[14] = dose: 400.0 mg/kg/injection, schedule: Q01DX009 (ip), vehicle: Klucel (hydroxypropylcellulose) (HPC)
[15] = dose: 100.0 mg/kg/injection, schedule: Q04DX003 (ip), vehicle: saline
[16] = dose: 400.0 mg/kg/injection, schedule: Q04DX003 (ip), vehicle: saline

Measured: T/C

CCN(CC)CCCC(C)Nc1ccnc(/C=C/c2ccc(C(F)(F)F)cc2)c1 (stereo unspecified)
inactive: dose: 12.5 mg/kg/injection, schedule: Q01DX001 (ip), vehicle: saline 98 % of control | [1] 95 % of control | dose: 25.0 mg/kg/injection, schedule: Q01DX001 (ip), vehicle: saline 96 % of control | dose: 40.0 mg/kg/injection, schedule: Q04DX003 (ip), vehicle: saline 95 % of control | dose: 50.0 mg/kg/injection, schedule: Q01DX001 (ip), vehicle: saline 104 % of control | dose: 80.0 mg/kg/injection, schedule: Q04DX003 (ip), vehicle: saline 93 % of control | dose: 100.0 mg/kg/injection, schedule: Q01DX001 (ip), vehicle: saline 86 % of control

O=S(=O)(CCO)c1ccc2ccccc2c1
inactive: dose: 100.0 mg/kg/injection, schedule: Q01DX001 (ip), vehicle: Klucel (hydroxypropylcellulose) (HPC) 101 % of control | [2] 101 % of control | dose: 200.0 mg/kg/injection, schedule: Q01DX001 (ip), vehicle: Klucel (hydroxypropylcellulose) (HPC) 98 % of control | [3] 97 % of control | dose: 400.0 mg/kg/injection, schedule: Q01DX001 (ip), vehicle: Klucel (hydroxypropylcellulose) (HPC) 98 % of control | [4] 105 % of control

C=CCNc1ncnc2c1cnn2C
inactive: dose: 50.0 mg/kg/injection, schedule: Q01DX009 (ip), vehicle: saline 118 % of control | dose: 100.0 mg/kg/injection, schedule: Q01DX009 (ip), vehicle: saline 103 % of control

NC(CSS(=O)(=O)O)=NCCCCOc1ccccc1
inactive: dose: 6.25 mg/kg/injection, schedule: Q04DX002 (ip), vehicle: Klucel (hydroxypropylcellulose) (HPC) 111 % of control | dose: 12.5 mg/kg/injection, schedule: Q04DX002 (ip), vehicle: Klucel (hydroxypropylcellulose) (HPC) 89 % of control | dose: 25.0 mg/kg/injection, schedule: Q04DX002 (ip), vehicle: Klucel (hydroxypropylcellulose) (HPC) 108 % of control | [5] 97 % of control

COC(=O)/C=C/Nc1ccccc1
inactive: dose: 100.0 mg/kg/injection, schedule: Q04DX003 (ip), vehicle: other 98 % of control | dose: 200.0 mg/kg/injection, schedule: Q04DX003 (ip), vehicle: other 98 % of control | dose: 400.0 mg/kg/injection, schedule: Q04DX003 (ip), vehicle: other 94 % of control

CCCCCC/C=N/NC(=O)c1ccc[n+](C)c1
inactive: [6] 93 % of control | [7] 100 % of control | [8] 100 % of control

CC(C)[Si](F)(c1ccc(Br)cc1)C(C)C
inactive: [7] 103 % of control | [8] 95 % of control

CCN(CC)/N=N/c1[nH]ncc1C(N)=O
inactive: dose: 88.0 mg/kg/injection, schedule: Q01DX009 (ip), vehicle: saline with Tween-80 119 % of control | dose: 100.0 mg/kg/injection, schedule: Q01DX001 (ip), vehicle: saline with Tween-80 111 % of control | [9] 101 % of control | dose: 200.0 mg/kg/injection, schedule: Q01DX001 (ip), vehicle: saline with Tween-80 103 % of control | [10] 103 % of control | dose: 300.0 mg/kg/injection, schedule: Q01DX009 (ip), vehicle: saline with Tween-80 110 % of control | dose: 400.0 mg/kg/injection, schedule: Q01DX001 (ip), vehicle: saline with Tween-80 106 % of control | [11] 108 % of control

COc1ccc(Cl)cc1NS(=O)(=O)c1cccc([N+](=O)[O-])c1
inactive: [12] 96 % of control | [13] 98 % of control | [14] 91 % of control

CCCCN(CCCC)CCSc1c(Cl)c(Cl)c(Cl)c(Cl)c1Cl
inactive: dose: 320.0 mg/kg/injection, schedule: Q01DX Z (ip), vehicle: saline 99 % of control | dose: 480.0 mg/kg/injection, schedule: Q01DX Z (ip), vehicle: saline 90 % of control

CC(C)CC(C)NCC(C)O (stereo unspecified)
inactive: dose: 75.0 mg/kg/injection, schedule: Q01DX001 (ip), vehicle: acid diluted with saline 100 % of control | dose: 150.0 mg/kg/injection, schedule: Q01DX001 (ip), vehicle: acid diluted with saline 100 % of control

O=C(Oc1c(Cl)cc(S(=O)(=O)F)cc1Cl)c1ccc([N+](=O)[O-])cc1
inactive: dose: 100.0 mg/kg/injection, schedule: Q04DX002 (ip), vehicle: gum acacia 101 % of control | dose: 200.0 mg/kg/injection, schedule: Q04DX002 (ip), vehicle: gum acacia 99 % of control | dose: 400.0 mg/kg/injection, schedule: Q04DX002 (ip), vehicle: gum acacia 99 % of control

NC(=O)c1ccc(NC(=O)/C=C/C(=O)Nc2ccc(C(N)=O)cn2)nc1
inactive: dose: 1.0 mg/kg/injection, schedule: Q01DX001 (ip), vehicle: saline 100 % of control | dose: 1.0 mg/kg/injection, schedule: Q01DX Z (ip), vehicle: saline 101 % of control and 105 % of control and 113 % of control | dose: 2.0 mg/kg/injection, schedule: Q01DX001 (ip), vehicle: saline 100 % of control | dose: 2.0 mg/kg/injection, schedule: Q01DX Z (ip), vehicle: saline 87 % of control | dose: 4.0 mg/kg/injection, schedule: Q01DX001 (ip), vehicle: saline 100 % of control | dose: 4.0 mg/kg/injection, schedule: Q01DX Z (ip), vehicle: saline 99 % of control | dose: 5.0 mg/kg/injection, schedule: Q01DX001 (ip), vehicle: saline 107 % of control | dose: 5.0 mg/kg/injection, schedule: Q04DX003 (ip), vehicle: saline 107 % of control | dose: 8.0 mg/kg/injection, schedule: Q01DX001 (ip), vehicle: saline 102 % of control | dose: 8.0 mg/kg/injection, schedule: Q01DX Z (ip), vehicle: saline 107 % of control and 91 % of control | dose: 10.0 mg/kg/injection, schedule: Q01DX001 (ip), vehicle: saline 98 % of control | dose: 11.25 mg/kg/injection, schedule: Q01DX009 (ip), vehicle: saline 93 % of control | dose: 13.0 mg/kg/injection, schedule: Q04DX003 (ip), vehicle: acetone 104 % of control | dose: 13.0 mg/kg/injection, schedule: Q04DX003 (ip), vehicle: saline 109 % of control | dose: 20.0 mg/kg/injection, schedule: Q01DX001 (ip), vehicle: saline 104 % of control | dose: 20.0 mg/kg/injection, schedule: Q04DX003 (ip), vehicle: acetone 109 % of control | [1] 109 % of control | dose: 30.0 mg/kg/injection, schedule: Q04DX003 (ip), vehicle: acetone 98 % of control | dose: 30.0 mg/kg/injection, schedule: Q04DX003 (ip), vehicle: saline 109 % of control | dose: 45.0 mg/kg/injection, schedule: Q04DX003 (ip), vehicle: saline 88 % of control

C[n+]1cccc2cccc(O)c21
inactive: [5] 115 % of control

COc1cc2nc3cc([N+](=O)[O-])ccc3c(Cl)c2cc1OC
inactive: [12] 96 % of control | [2] 97 % of control | [13] 88 % of control | [3] 98 % of control | [4] 103 % of control

O=C(Cc1ccc(Cl)cc1)NC(NC(=O)Cc1ccc(Cl)cc1)C(Cl)(Cl)Cl
inactive: [12] 102 % of control | [13] 96 % of control | [14] 88 % of control

COc1cccc(/C=C/c2nccc3ccccc23)c1OC
inactive: [12] 90 % of control | [2] 106 % of control | [13] 91 % of control | [3] 98 % of control | [14] 91 % of control | [4] 90 % of control

CCCNC(=O)NS(=O)(=O)c1ccc(Cl)cc1
inactive: [2] 93 % of control | [3] 94 % of control | [4] 104 % of control

Cc1ccc([N+](=O)[O-])cc1NC(=O)NCCCl
inactive: [9] 90 % of control | [10] 90 % of control | [11] 92 % of control

COC(=O)CCC(=O)Nc1cccc2cnccc12
inactive: [15] 102 % of control | [16] 102 % of control

Cc1ccc(S(=O)(=O)NN=C(C2=CCCCC2)C2=CCCCC2)cc1
inactive: [15] 94 % of control | dose: 200.0 mg/kg/injection, schedule: Q04DX003 (ip), vehicle: saline 93 % of control | [16] 93 % of control

Cc1ccc(C(=O)C2CC2)cc1C
inactive: [6] 100 % of control | [7] 91 % of control | [9] 98 % of control | [8] 91 % of control | dose: 202.0 mg/kg/injection, schedule: Q04DX003 (ip), vehicle: saline with Tween-80 107 % of control
